Data set [1] concerns Human immunodeficiency virus 1. The experiment in a line: Antiviral activity against HIV1 3B infected in human MT4 cells assessed as reduction in virus-induced cytopathogenic effect by MTT assay. The note with it: Human immunodeficiency virus 1, 3B.
Data set [2] has as its system Human immunodeficiency virus 1. Description: Antiviral activity against HIV1 RES056 infected in human MT4 cells assessed as reduction in virus-induced cytopathogenic effect by MTT assay. Particulars: Human immunodeficiency virus 1, RES056, MT4.
Data set [3] concerns Human immunodeficiency virus 2. Description: Antiviral activity against wild type HIV2 ROD infected in human MT4 cells assessed as reduction in virus-induced cytopathogenic effect by MTT assay. The note with it: Human immunodeficiency virus 2, ROD.
Data set [4] is described as follows: Cytotoxicity against human MT4 cells assessed as reduction in cell viability by MTT assay.
Data set [5] has as its system Human immunodeficiency virus 1. Description: Antiviral activity against HIV1 harboring L100I mutant infected in human MT4 cells assessed as reduction in virus-induced cytopathogenic effect by MTT assay. Particulars: Human immunodeficiency virus 1, MT4.
Data set [6] concerns Human immunodeficiency virus 1. Description: Antiviral activity against HIV1 harboring K103N mutant infected in human MT4 cells assessed as reduction in virus-induced cytopathogenic effect by MTT assay. The class given is functional, organism-based. The note with it: Human immunodeficiency virus 1, MT4.
Data set [7] relates to Human immunodeficiency virus 1. Description: Antiviral activity against wild type HIV1 harboring Y181C mutant infected in human MT4 cells assessed as reduction in virus-induced cytopathogenic effect by MTT assay. The note with it: Human immunodeficiency virus 1, MT4.
The test system of data set [8] is Human immunodeficiency virus 1. Description: Antiviral activity against wild type HIV1 harboring Y188L mutant infected in human MT4 cells assessed as reduction in virus-induced cytopathogenic effect by MTT assay. Particulars: Human immunodeficiency virus 1, MT4.
In data set [9] the test system is Human immunodeficiency virus 1. The note with it: Human immunodeficiency virus 1, MT4.
Data set [10] has as its system Human immunodeficiency virus 1. Description: Antiviral activity against HIV1 harboring F227L/V106A mutant infected in human MT4 cells assessed as reduction in virus-induced cytopathogenic effect by MTT assay. The class given is functional, organism-based. The note with it: Human immunodeficiency virus 1, MT4.
Data set [11] has as its target Human immunodeficiency virus type 1 reverse transcriptase (Human immunodeficiency virus 1, UniProt Q72547). The experiment in a line: Inhibition of wild type HIV1 reverse transcriptase assessed as reduction in biotin-dUTP incorporation into […] incubated for 1 hrs by ELISA.
Data set [12] can be described thus: Half life in human liver microsomes preincubated for 10 mins followed by phosphate buffer addition and incubated for 1 hr and subsequent addition of NADPH regenerating system and measured after 2 hrs by LC-MS/MS analysis.
Data set [13] can be described thus: Stability in human liver microsomes assessed as compound remaining preincubated for 10 mins followed by phosphate buffer addition and incubated for 1 hr and subsequent addition of NADPH regenerating system and measured after 60 mins by LC-MS/MS analysis. The class given is ADME, Microsome. Particulars: time 190 min, read-out: Stability.
Data set [14] is described as follows: Acute toxicity in ig dosed Kunming mouse measured every day for 7 days. The class given is organism-based. The note with it: in vivo, po, time 7 day.
The nature of data set [15]: Acute toxicity in Kunming mouse assessed as mortality at 1000 mg/kg, ig measured every day for 7 days. Type of data set: organism-based. Particulars: in vivo, po, 168 h, time 7 day.
A short description of data set [16]: Acute toxicity in Kunming mouse assessed as induction of poisoning at 1000 mg/kg, ig measured every day for 7 days. The note with it: in vivo, po, 168 h, time 7 day. Type of data set: organism-based.
Data set [17] can be described thus: Acute toxicity in Kunming mouse assessed as effect on growth at 1000 mg/kg, ig measured every day for 7 days. Type of data set: organism-based. The note with it: in vivo, po, 168 h, time 7 day.
Data set [18] can be described thus: Acute toxicity in Kunming mouse assessed as effect on body weight at 1000 mg/kg, ig measured every day for 7 days. The class given is organism-based. The note with it: in vivo, po, 168 h, time 7 day.
Data set [19] can be described thus: Half life in Sprague-Dawley rat at 2 mg/kg, iv measured after 5 to 600 mins by LC-MS/MS analysis. The note with it: in vivo, time 5-600 min. The class given is ADME, organism-based.
Data set [20] in a line: Tmax in Sprague-Dawley rat at 2 mg/kg, iv measured after 5 to 600 mins by LC-MS/MS analysis. Type of data set: ADME, organism-based. The note with it: in vivo, time 5-600 min.
Data set [21] can be described thus: Cmax in Sprague-Dawley rat at 2 mg/kg, iv measured after 5 to 600 mins by LC-MS/MS analysis. The class given is ADME, organism-based. Also noted: route intravenous, time lower 5 min, dose 2 mg/kg, time upper 600 min. The note with it: in vivo.
A short description of data set [22]: AUC(0 to last) in Sprague-Dawley rat at 2 mg/kg, iv measured after 5 to 600 mins by LC-MS/MS analysis. The arrangement: route intravenous, dose 2 mg/kg, time upper 600 min, time lower 5 min. The note with it: in vivo. The class given is ADME, organism-based.
Data set [23] can be described thus: AUC(0 to infinity) in Sprague-Dawley rat at 2 mg/kg, iv measured after 5 to 600 mins by LC-MS/MS analysis. Type of data set: ADME, organism-based. Also noted: route intravenous, time 5-600 min, dose 2 mg/kg. Particulars: in vivo.
Data set [24] in a line: Clearance in Sprague-Dawley rat at 2 mg/kg, iv measured after 5 to 600 mins by LC-MS/MS analysis. Type of data set: ADME, organism-based. The note with it: in vivo, time 5-600 min.
The nature of data set [25]: MRT (0 to infinity) in Sprague-Dawley rat at 2 mg/kg, iv measured after 5 to 600 mins by LC-MS/MS analysis. Type of data set: ADME, organism-based. The note with it: in vivo, time 5-600 min.
Data set [26] can be described thus: Half life in Sprague-Dawley rat at 20 mg/kg, po measured after 15 to 720 mins by LC-MS/MS analysis. The class given is ADME, organism-based. Particulars: in vivo, time 15-720 min.
The nature of data set [27]: Tmax in Sprague-Dawley rat at 20 mg/kg, po measured after 15 to 720 mins by LC-MS/MS analysis. Type of data set: ADME, organism-based. Particulars: in vivo, time 15-720 min.
Data set [28] is described as follows: Cmax in Sprague-Dawley rat at 20 mg/kg, po measured after 15 to 720 mins by LC-MS/MS analysis. Type of data set: ADME, organism-based. The arrangement: route oral, dose 20 mg/kg, time 15-720 min. Particulars: in vivo.
The nature of data set [29]: AUC (0 to last) in Sprague-Dawley rat at 20 mg/kg, po measured after 15 to 720 mins by LC-MS/MS analysis. The class given is ADME, organism-based. The arrangement: route oral, time lower 15 min, dose 20 mg/kg, time upper 720 min. The note with it: in vivo.
Data set [30] can be described thus: AUC (0 to infinity) in Sprague-Dawley rat at 20 mg/kg, po measured after 15 to 720 mins by LC-MS/MS analysis. Type of data set: ADME, organism-based. The arrangement: route oral, time lower 15 min, dose 20 mg/kg, time upper 720 min. The note with it: in vivo.
Data set [31] in a line: MRT (0 to infinity) in Sprague-Dawley rat at 20 mg/kg, po measured after 15 to 720 mins by LC-MS/MS analysis. Type of data set: ADME, organism-based. The note with it: in vivo, time 15-720 min.
Data set [32] can be described thus: Volume of distribution in Sprague-Dawley rat at 2 mg/kg, iv measured after 5 to 600 mins by LC-MS/MS analysis. Type of data set: ADME, organism-based. The note with it: in vivo, time 5-600 min.
A short description of data set [33]: in vitro. Particulars: human, liver microsomes.
Data set [34] in a line: Solubility in phosphate buffer at pH7. Particulars: pH 7.
Data set [35] in a line: Selectivity ratio of CC50 for human MT4 cells to IC50 for HIV1 RES056 infected in MT4 cells.
The nature of data set [36]: in vitro. Particulars: human, MT4 cells.
Description: Selectivity index, ratio of CC50 for human MT4 cells to EC50 for HIV1 harboring E138K mutant infected in human MT4 cells

pEC50, pIC50: −log10 of the molar value. Converted amounts (≈) assume the structure as drawn.

In the case of `Cc1cc(/C=C/C#N)cc(C)c1Oc1nc(Nc2ccc(C#N)cc2)nc2c1CSCC2`, the pEC50 in data set [1] was 8.01; in data set [2], 7.32; in data set [3], less than 3.55; in [5], 8.35; in [6], 8.35; in [7], 7.83. In addition, the pEC50 in [8] is 7.26; in [9] it was 8.01; in data set [10], 7.37. Further, in data set [4], the CC50 was 284000 nM. Besides, the pIC50 in [11] is 7.09. Besides, in [12], the half-life at 2 h stood at 7.4 min. In addition, the remaining at 1 h in data set [13] was 0.3%. The compound further displayed a median lethal dose (LD50) at 168 h in data set [14] greater than 1000 mg/kg. Further, the Activity entry in [15], in [16], in data set [17] and in [18] was “Non-Toxic” each time. In addition, the half-life in [19] was 116 min; in [26] it was 121 min. In addition, the results for the Tmax in [20] and in [27] were 4.98 min and 15 min, respectively. Also, the Cmax in data set [21] was found to be 8880 ng/mL; in [28] it was 16.6 ng/mL. For the same compound, the AUC(0-t) in data set [22] is 1510 ng·h/mL; in data set [29], 19.5 ng·h/mL. In addition, the AUC(0-inf) in data set [23] was 1510 ng·h/mL; in data set [30], 24 ng·h/mL. In [24], this compound had a clearance of 23 mL/min/kg. Besides, the figures for the MRT inf in data set [25] and in data set [31] were 30 min and 174 min, respectively. For the same compound, in data set [32], the Vd is 0.702 L/kg. The compound further showed a microsomal CLint at 2 h in [33] of 188 µL/min/mg.
`Cc1cc(/C=C/C#N)cc(C)c1Nc1ccnc(Nc2ccc(C#N)cc2)n1` [RILPIVIRINE] showed a solubility in data set [34] of 2 ng/mL (≈ 5.46 nM).
Regarding `Cc1cc(/C=C/C#N)cc(C)c1Oc1nc(NC2CCN(Cc3ccc(S(N)(=O)=O)cc3)CC2)nc2c1CSCC2`, the pEC50 in data set [1] is 7.97; in data set [2], 7.26; in data set [3], 5.39; in data set [5], 8.09; in data set [6], 8.03; in data set [7], 7.65. For the same compound, the pEC50 in [8] was 7.43; in data set [9] it was 7.39; in data set [10], 7.79. The CC50 in data set [4] was 15100 nM. For the same compound, the results for the selectivity ratio in [35] and in data set [36] were 272 and 370, respectively. The pIC50 in data set [11] was 6.69.
In the case of `Cc1cc(/C=C/C#N)cc(C)c1Oc1nc(NC2CCN(Cc3ccc(S(N)(=O)=O)cc3)CC2)nc2ccsc12`, in [12], the half-life at 2 h was determined as 1.6 min. Besides, the remaining at 1 h in [13] amounted to 0.2%. The compound further returned a microsomal CLint at 2 h in data set [33] of 847 µL/min/mg.
For `Cc1cc(C#N)cc(C)c1Oc1nc(Nc2ccc(C#N)cc2)nc(N)c1Br` [ETRAVIRINE], the pEC50 in [1] is 8.30; in [2] it was 7.37; in data set [3], less than 5.34; in data set [5], 8.20; in [6], 8.50; in data set [9] it was 8.09. Moreover, the negative logarithm of the EC50 (pEC50) in data set [10] is 7.84. Also, the CC50 in data set [4] was greater than 4590 nM. The same compound came in with a solubility in data set [34] of less than 1000 ng/mL.

(Values after ChEMBL document CHEMBL4831515 (J Med Chem, 2021).)
